Measurements from patent publication US12226425B2, “Inhibitors of ARG1 and/or ARG2” (Arcus Biosciences, Inc., priority 2018, dated 2025).

Target: T1, recombinant human ARG1 (Homo sapiens, UniProt P05089)
T1 sequence (P05089 1-322): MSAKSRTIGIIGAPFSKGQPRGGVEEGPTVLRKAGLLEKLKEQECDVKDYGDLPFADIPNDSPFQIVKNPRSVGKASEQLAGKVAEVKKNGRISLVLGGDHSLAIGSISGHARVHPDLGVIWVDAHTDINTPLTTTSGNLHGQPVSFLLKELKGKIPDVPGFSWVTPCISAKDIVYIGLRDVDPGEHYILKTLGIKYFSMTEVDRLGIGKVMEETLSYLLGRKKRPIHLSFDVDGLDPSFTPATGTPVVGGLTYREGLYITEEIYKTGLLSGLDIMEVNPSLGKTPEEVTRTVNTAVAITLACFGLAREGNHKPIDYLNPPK
Experiment: Arginase coupled enzymatic assay using recombinant human ARG1
Format: biochemical
Conditions: 2 nM ARG1, 0.8 mM L-Arginine, 10 mM sodium phosphate pH 7.4, 0.1 mM MnCl2, 37° C., absorption at 570 nm; read-out: hARG1 potency (IC50)
Description: Purified recombinant human ARG1 and ARG2 were prepared in 50 mM Bicine, pH 8.5, 100 μM MnCl2, 20% glycerol and 1mM DTT at a final stock concentration of 14.4 μM and 7.56 μM respectively. 2.5 nM of either ARG1 or ARG2 were incubated with varying concentrations of compounds in 10 mM sodium phosphate, pH 7.4, 0.1 mM MnCl2 and 2.5% DMSO in a total volume of 40 μl in a 384-well microplate (Corning™ #3640) at 37° C. for 1 h. The arginase enzymatic reaction was initiated by addition of 10 μl of 4 mM L-Arginine pre-incubated in 10 mM sodium phosphate, pH 7.4, and 0.1 mM MnCl2 at 37° C. into the enzyme and compound mixture, giving the final reaction conditions: 2 nM of ARG1 or ARG2 and 0.8 mM of L-Arginine in 10 mM sodium phosphate, pH 7.4, 0.1 mM MnCl2 and 2% DMSO with varying concentrations of compounds. Following 2 h incubation at 37° C., the arginase enzymatic reaction was stopped by transfer of 10 μl of reaction into 10 μl of detection mix (204 μM Amino-2-Borono-6-Hexanoic Acid, 0.25 μl Arginase Enzyme mix, 0.25 μl Arginase Developer, 0.25 μl Arginase Converter Enzyme in Arginase Assay Buffer from Arginase Activity Colorimetric Assay Kit, BioVision Inc. #K755-100) in a transparent 384-well microplate (Greiner #781801). The plate was immediately put into a plate reader (Synergy™ Neo2 Multi-Mode Microplate Reader) to monitor absorption at 570 nm at 37° C. Absorption values at 12˜20 min were used to calculate compound potency. The value of the DMSO blank (MIN inhibition=100% activity) was used as a negative control. The positive control was established by adding 8 μl of enzyme and DMSO mix into 10 μl of detection mix followed by addition of 2 μl of L-Arginine (MAX inhibition=0% activity). To calculate the percent activity, Equation 1 was used. Abs570nm is the value at a given compound concentration:
A counter-screen was performed to identify any inhibition of the coupling enzymes by the test compounds. 10 μl of 0.26 mM of urea with varying concentrations of compounds in 10 mM sodium phosphate, pH 7.4, 0.1 mM MnCl2 and 2% DMSO were added into 10 μl of detection mix in place of the arginase enzymatic reaction mix. Absorption was monitored at 570 nm as described above. The values of a no substrate blank (without urea; MAX inhibition=0% activity) and a DMSO blank (MIN inhibition=100% activity) were used as positive and negative controls respectively. […] Inactivity in the counter-screen was used to confirm that results accurately reflected IC50 values for ARG1 and ARG2.

Compound	IC50 [nM]
COc1ccc2c(c1)[C@@](N)(C(=O)O)[C@@H](CCCB(O)O)C2	100 to 1000
CN[C@@]1(C(=O)O)c2cc(N3CC[C@H](O)C3)c(F)cc2C[C@@H]1CCCB(O)O	100 to 1000
CNCc1cc2c(cc1F)C[C@H](CCCB(O)O)[C@]2(NC)C(=O)O	< 100
CN[C@@]1(C(=O)O)c2cc(-c3ncccc3N)c(F)cc2C[C@@H]1CCCB(O)O	100 to 1000
CN[C@@]1(C(=O)O)c2cc([C@@H](C)N)c(Cl)cc2C[C@@H]1CCCB(O)O	< 100
CN[C@@]1(C(=O)O)c2cc(C(C)(C)CN)c(F)cc2C[C@@H]1CCCB(O)O	< 100
CN[C@@]1(C(=O)O)c2cc(-c3cccnc3)c(F)cc2C[C@@H]1CCCB(O)O	100 to 1000
Cc1ccc2c(c1)C[C@H](CCCB(O)O)[C@]2(N)C(=O)O	> 1000
CC[C@H](N)c1cc2c(cc1F)C[C@H](CCCB(O)O)[C@]2(NC)C(=O)O	< 100
CN[C@@]1(C(=O)O)c2cc(-c3ccccn3)c(F)cc2C[C@@H]1CCCB(O)O	100 to 1000
CN[C@@]1(C(=O)O)c2cc(Cn3ccnc3N)c(Cl)cc2C[C@@H]1CCCB(O)O	< 100
N#Cc1ccc2c(c1)[C@@](N)(C(=O)O)[C@@H](CCCB(O)O)C2	> 1000
CC[C@@H](NC)c1cc2c(cc1F)C[C@H](CCCB(O)O)[C@]2(NC)C(=O)O	< 100
NCCc1cc2c(cc1Cl)C[C@H](CCCB(O)O)[C@]2(N)C(=O)O	< 100
CN[C@@]1(C(=O)O)c2cc(Cc3ccccn3)c(Cl)cc2C[C@@H]1CCCB(O)O	100 to 1000
CN[C@@]1(C(=O)O)c2cc(CN3CCCCC3)c(F)cc2C[C@@H]1CCCB(O)O	< 100
CNCc1cccc2c1C[C@H](CCCB(O)O)[C@]2(NC)C(=O)O	100 to 1000
CCC(N)(CC)c1cc2c(cc1F)C[C@H](CCCB(O)O)[C@]2(NC)C(=O)O	< 100
NC1(c2cc3c(cc2F)C[C@H](CCCB(O)O)[C@]3(N)C(=O)O)CCC1	< 100
CN[C@@]1(C(=O)O)c2cc(-c3ccc(CN)cc3)ccc2C[C@@H]1CCCB(O)O	< 100
CN[C@@]1(C(=O)O)c2cc([C@@H](N)C(C)C)c(F)cc2C[C@@H]1CCCB(O)O	< 100
CN[C@@]1(C(=O)O)c2cc(-c3cccc(F)c3C(C)(C)N)c(F)cc2C[C@@H]1CCCB(O)O	< 100
CN[C@@]1(C(=O)O)c2cc(CN3CCCC3)c(F)cc2C[C@@H]1CCCB(O)O	< 100
CN[C@@]1(C(=O)O)c2cc(CN3CC(F)(F)C3)c(Cl)cc2C[C@@H]1CCCB(O)O	100 to 1000
NCCc1cccc2c1C[C@H](CCCB(O)O)[C@]2(N)C(=O)O	100 to 1000

Compound	IC50 [nM]
CN[C@@]1(C(=O)O)c2cc(C(C)(C)N)c(Cl)cc2C[C@@H]1CCCB(O)O	< 100
CN[C@@]1(C(=O)O)c2cc([C@H](C)N)c(F)cc2C[C@@H]1CCCB(O)O	< 100
CN[C@@]1(C(=O)O)c2cc([C@@H](C)N)ccc2C[C@@H]1CCCB(O)O	< 100
CN[C@@]1(C(=O)O)c2cc(CO)c(Cl)cc2C[C@@H]1CCCB(O)O	100 to 1000
CN[C@@]1(C(=O)O)c2cc(C3(N)CCC3)ccc2C[C@@H]1CCCB(O)O	< 100
N[C@@]1(C(=O)O)c2cccnc2C[C@@H]1CCCB(O)O	> 1000
CN[C@@]1(C(=O)O)c2cc(CN3CCC[C@H]3C(=O)O)c(F)cc2C[C@@H]1CCCB(O)O	100 to 1000
CN[C@@]1(C(=O)O)c2cc(-c3ccccc3CO)c(F)cc2C[C@@H]1CCCB(O)O	100 to 1000
CN[C@@]1(C(=O)O)c2cc(CNC(C)C)c(F)cc2C[C@@H]1CCCB(O)O	< 100
CN[C@@]1(C(=O)O)c2ccccc2C[C@@H]1CCCB(O)O	100 to 1000
CN[C@@]1(C(=O)O)c2cc(N)c(Cl)cc2C[C@@H]1CCCB(O)O	100 to 1000
CN(C)[C@@]1(C(=O)O)c2cc(CN)ccc2C[C@@H]1CCCB(O)O	100 to 1000
N[C@@]1(C(=O)O)c2ccc(Cl)cc2C[C@@H]1CCCB(O)O	100 to 1000
CN[C@@]1(C(=O)O)c2cc(CN)c(F)cc2C[C@@H]1CCCB(O)O	< 100
CN[C@@]1(C(=O)O)c2cc([C@H](C)N)c(OC)cc2C[C@@H]1CCCB(O)O	< 100
CN[C@@]1(C(=O)O)c2cc([C@@H](N)C(C)C)c(Cl)cc2C[C@@H]1CCCB(O)O	< 100
CC(N)c1ccc2c(c1)[C@@](N)(C(=O)O)[C@@H](CCCB(O)O)C2 (stereo partly drawn)	< 100
CN[C@@]1(C(=O)O)c2cc(C3CCNCC3)c(F)cc2C[C@@H]1CCCB(O)O	< 100
NCCc1ccc2c(c1)[C@@](N)(C(=O)O)[C@@H](CCCB(O)O)C2	< 100
CN[C@@]1(C(=O)O)c2cc(C3(N)CC3)c(F)cc2C[C@@H]1CCCB(O)O	< 100
CN[C@@]1(C(=O)O)c2cc(C(C)(C)N)c(F)cc2C[C@@H]1CCCB(O)O	< 100
CN[C@@]1(C(=O)O)c2cc(-c3cccc(CN)c3)c(Cl)cc2C[C@@H]1CCCB(O)O	< 100
CN[C@@]1(C(=O)O)c2cc([C@H](C)N)c(OCC(F)(F)F)cc2C[C@@H]1CCCB(O)O	< 100
CN[C@@]1(C(=O)O)c2cc(OCCN)ccc2C[C@@H]1CCCB(O)O	< 100
CN[C@@]1(C(=O)O)c2cc(CNC3CCCC3)c(F)cc2C[C@@H]1CCCB(O)O	< 100

Compound	IC50 [nM]
CN[C@@]1(C(=O)O)c2cc(CN3CCCCC3(C)C)c(F)cc2C[C@@H]1CCCB(O)O	< 100
CC[C@@H](N)c1cc2c(cc1Cl)C[C@H](CCCB(O)O)[C@]2(NC)C(=O)O	< 100
CN[C@@]1(C(=O)O)c2cc(-c3cc(F)ccc3CN)c(F)cc2C[C@@H]1CCCB(O)O	< 100
CN[C@@]1(C(=O)O)c2cc([C@@H](C)N)c(F)cc2C[C@@H]1CCCB(O)O	< 100
CN[C@@]1(C(=O)O)c2cc(CNC(C)=O)ccc2C[C@@H]1CCCB(O)O	100 to 1000
NC1CN(c2ccc3c(c2)C[C@H](CCCB(O)O)[C@]3(N)C(=O)O)C1	> 1000
CN[C@@]1(C(=O)O)c2cc(C3(N)CC(C)(C)C3)c(F)cc2C[C@@H]1CCCB(O)O	< 100
N[C@@]1(C(=O)O)c2cccc(Br)c2C[C@@H]1CCCB(O)O	> 1000
CN[C@@]1(C(=O)O)c2cc(CN(C)C)c(Cl)cc2C[C@@H]1CCCB(O)O	< 100
CN[C@@]1(C(=O)O)c2cc(C3(CNC(=O)[C@H](C)N)CCC3)c(F)cc2C[C@@H]1CCCB(O)O	< 100
CN[C@@]1(C(=O)O)c2cc(-c3ccccc3CN)c(F)cc2C[C@@H]1CCCB(O)O	< 100
CN[C@@]1(C(=O)O)c2cc(C3(C(N)=O)CCC3)c(F)cc2C[C@@H]1CCCB(O)O	100 to 1000
CC[C@@](C)(N)c1cc2c(cc1F)C[C@H](CCCB(O)O)[C@]2(NC)C(=O)O	< 100
CN[C@@]1(C(=O)O)c2cc(-c3ccc(F)cc3CN)c(F)cc2C[C@@H]1CCCB(O)O	< 100
CCN[C@@]1(C(=O)O)c2cc(OC)c(CN)cc2C[C@@H]1CCCB(O)O	100 to 1000
CN[C@@]1(C(=O)O)c2cc([C@H](C)N)ccc2C[C@@H]1CCCB(O)O	< 100
CNCc1cc2c(cc1Cl)C[C@H](CCCB(O)O)[C@]2(NC)C(=O)O	< 100
CN[C@@]1(C(=O)O)c2cc([C@H](N)C(F)(F)F)ccc2C[C@@H]1CCCB(O)O	100 to 1000
CN[C@@]1(C(=O)O)c2cc(-c3ncccc3C)c(F)cc2C[C@@H]1CCCB(O)O	100 to 1000
CN[C@@]1(C(=O)O)c2cc(CN3CCC(F)(F)CC3)c(F)cc2C[C@@H]1CCCB(O)O	100 to 1000
CN[C@@]1(C(=O)O)c2cc(OC)c(CN)cc2C[C@@H]1CCCB(O)O	< 100
NCc1ccc2c(c1)[C@@](N)(C(=O)O)[C@@H](CCCB(O)O)C2	< 100
CN[C@@]1(C(=O)O)c2cc(-c3ccc(CN)cc3)c(Cl)cc2C[C@@H]1CCCB(O)O	< 100
CN[C@@]1(C(=O)O)c2cc(CNC3CC3)c(F)cc2C[C@@H]1CCCB(O)O	< 100
NCc1cccc2c1C[C@H](CCCB(O)O)[C@]2(N)C(=O)O	100 to 1000
